Test results as given in patent US9938562B2, “Naphthalene derived chromogenic enzyme substrates” (Glycosynth Limited, priority 2013, dated 2018).
Structures can show the parent of a compound that is named as a salt. Where two headings read alike, the source gives them in different places.

Tests used:
[1] = system: Escherichia coli NCTC 10418; assay: Agar plate multi-point inoculation, colour; format: cell-based
[2] = system: Providencia rettgeri NCTC 7475; assay: Agar plate multi-point inoculation, colour; format: cell-based
[3] = system: Enterobacter cloacae NCTC 11936; assay: Agar plate multi-point inoculation, colour; format: cell-based
[4] = system: Serratia marcescens NCTC 10211; assay: Agar plate multi-point inoculation, colour; format: cell-based
[5] = system: Salmonella typhimurium NCTC 74; assay: Agar plate multi-point inoculation, colour; format: cell-based
[6] = system: Pseudomonas aeruginosa NCTC 10662; assay: Agar plate multi-point inoculation, colour; format: cell-based
[7] = system: Yersinia enterocolitica NCTC 11176; assay: Agar plate multi-point inoculation, colour; format: cell-based; conditions: Columbia agar, FAC 500 mg/L, substrate 300 mg/L, 37° C. 18 h in air
[8] = system: Steptococcus pyogenes NCTC 8306; assay: Agar plate multi-point inoculation, colour; format: cell-based
[9] = system: Staphylococcus aureus (MRSA) NCTC 11939; assay: Agar plate multi-point inoculation, colour; format: cell-based; conditions: for Colour: Columbia agar, FAC 500 mg/L, substrate 300 mg/L, 37° C. 18 h in air
[10] = system: Staphylococcus aureus NCTC 6571; assay: Agar plate multi-point inoculation, colour; format: cell-based
[11] = system: Staphylococcus epidermidis NCTC 11047; assay: Agar plate multi-point inoculation, colour; format: cell-based
[12] = system: Listeria monocytogenes NCTC 11994; assay: Agar plate multi-point inoculation, colour; format: cell-based
[13] = system: Enterococcus faecium NCTC 7171; assay: Agar plate multi-point inoculation, colour; format: cell-based
[14] = system: Enterococcus faecalis NCTC 775; assay: Agar plate multi-point inoculation, colour; format: cell-based
[15] = system: Bacillus subtilis NCTC 9372; assay: Agar plate multi-point inoculation, colour; format: cell-based
[16] = system: Candida albicans ATCC 90028; format: cell-based; conditions: Columbia agar, FAC 500 mg/L, substrate 300 mg/L, 37° C. 18 h in air
[17] = system: Candida glabrata NCPF 3943; assay: Agar plate multi-point inoculation, colour; format: cell-based
[18] = system: Burkholderia cepacia 1222; assay: Agar plate multi-point inoculation, colour; format: cell-based; conditions: Columbia agar, FAC 500 mg/L, substrate 300 mg/L, 37° C. 18 h in air
[19] = system: Citrobacter freundii NCTC 9750 or 46262; assay: Agar plate multi-point inoculation, colour; format: cell-based; conditions: Columbia agar, FAC 500 mg/L, substrate 300 mg/L, 37° C. 18 h in air
[20] = system: Morganella morganii 462403 (wild); assay: Agar plate multi-point inoculation, colour; format: cell-based; conditions: Columbia agar, FAC 500 mg/L, substrate 300 mg/L, 37° C. 18 h in air
range of microorganisms = assay: Agar plate evaluation with a range of microorganisms (hue, diffusion, background); format: cell-based; conditions: agar plates with FAC
[21] = Columbia agar, FAC 500 mg/L, substrate 300 mg/L, 37° C. 18 h in air

CC(=O)NC1C(Oc2cc3ccccc3cc2O)OC(CO)C(O)C1O [Compound 15, DHN-N-acetyl-β-D-glucosaminide]
+: Colour [7]
++: Colour [4, 21] | Colour [8, 21] | Colour [12, 21] | Colour [13, 21] | Colour [14, 21]
+/−: Colour [3, 21]
204 to 205 °C: melting point
−: Colour [1, 21] | Colour [2, 21] | Colour [5, 21] | Colour [6, 21] | Colour [9] | Colour [10, 21] | Colour [11, 21] | Colour [15, 21] | Colour [16] | Colour [17, 21] | Colour [18] | Colour [19] | Colour [20]

O=C(O)C1OC(Oc2cc3ccccc3cc2O)C(O)C(O)C1O (as salt: salt) [Compound 12a, DHN-β-D-glucuronide CHA Salt]
223 to 224 °C: melting point

O=[N+]([O-])c1c(O)c(O[C@@H]2O[C@H](CO)C(O)C2O)cc2ccccc12 (stereo partly drawn) [Compound 19, 1-Nitro-DHN-β-D-ribofuranoside]
more distinctly red: colour (hue) after hydrolysis (range of microorganisms)
> 170 °C (dec.): melting point

OCC1OC(Oc2cc3cc(Br)c(Br)cc3cc2O)C(O)C(O)C1O [Compound 27, 6,7-Dibromo-DHN-β-D-glucopyranoside]
+: Colour [15, 21] | Colour [18] | Colour [19]
++: Colour [2, 21] | Colour [4, 21]
Tr.: Colour [1, 21] | Colour [9] | Colour [10, 21] | Colour [14, 21]
−: Colour [3, 21] | Colour [5, 21] | Colour [6, 21] | Colour [7] | Colour [8, 21] | Colour [11, 21] | Colour [16] | Colour [17, 21] | Colour [20]
+/−: Colour [12, 21] | Colour [13, 21]

OCC1OC(Oc2cc3ccccc3cc2O)C(O)C(O)C1O [Compound 10, DHN-α-D-galactopyranoside]
−: Colour [2, 21] | Colour [4, 21] | Colour [5, 21] | Colour [6, 21] | Colour [7] | Colour [8, 21] | Colour [9] | Colour [10, 21] | Colour [11, 21] | Colour [12, 21] | Colour [13, 21] | Colour [14, 21] | Colour [15, 21] | Colour [16] | Colour [17, 21] | Colour [18] | Colour [19] | Colour [20]
Tr.: Colour [1, 21] | Colour [3, 21]

OC[C@H]1O[C@@H](Oc2cc3ccccc3cc2O)C(O)C1O (stereo partly drawn) [Compound 2, DHN-β-D-ribofuranoside]
+: Colour [9] | Colour [10, 21]
++: Colour [1, 21] | Colour [2, 21] | Colour [3, 21] | Colour [4, 21] | Colour [5, 21] | Colour [19] | Colour [20]
unaffected: hydrolysis of substrate ([11]; agar plates with FAC)
181 to 182 °C: melting point
−: Colour [6, 21] | Colour [7] | Colour [8, 21] | Colour [11, 21] | Colour [12, 21] | Colour [13, 21] | Colour [14, 21] | Colour [15, 21] | Colour [16] | Colour [17, 21] | Colour [18]
able to hydrolyse: hydrolysis of substrate ([9]; agar plates with FAC) | hydrolysis of substrate ([10]; agar plates with FAC)

OCC1OC(Oc2cc3cc(Br)c(Br)cc3cc2O)C(O)C(O)C1O [Compound 25, 6,7-Dibromo-DHN-β-D-galactopyranoside]
+: Colour [4, 21] | Colour [19]
256 to 257 °C: melting point
++: Colour [1, 21]
Tr.: Colour [14, 21]
+/−: Colour [12, 21] | Colour [13, 21] | Colour [18]
−: Colour [2, 21] | Colour [3, 21] | Colour [5, 21] | Colour [6, 21] | Colour [7] | Colour [8, 21] | Colour [9] | Colour [10, 21] | Colour [11, 21] | Colour [15, 21] | Colour [16] | Colour [17, 21] | Colour [20]

O=C(O)C1OC(Oc2cc3cc(Br)c(Br)cc3cc2O)C(O)C(O)C1O [Compound 29, 6,7-Dibromo-DHN-β-D-glucuronide CHA Salt]
−: Colour [2] | Colour [3] | Colour [4] | Colour [5] | Colour [6] | Colour [7] | Colour [8] | Colour [9] | Colour [10] | Colour [11] | Colour [12] | Colour [13] | Colour [14] | Colour [15] | Colour [16] | Colour [17] | Colour [18] | Colour [19] | Colour [20]
++: Colour [1]

O=C(O)C1OC(Oc2cc3cc(Br)c(Br)cc3cc2O)C(O)C(O)C1O (as salt: salt) [Compound 29, 6,7-Dibromo-DHN-β-D-glucuronide CHA Salt]
221 to 224 °C: melting point

OCC1OC(Oc2cc3ccccc3cc2O)C(O)C(O)C1O [Compound 6, DHN-α-D-glucopyranoside]
+: Colour [1, 21] | Colour [11, 21]
++: Colour [3, 21] | Colour [4, 21] | Colour [8, 21] | Colour [12, 21] | Colour [14, 21] | Colour [15, 21]
−: Colour [2, 21] | Colour [5, 21] | Colour [6, 21] | Colour [16] | Colour [17, 21] | Colour [18] | Colour [19] | Colour [20]
Tr.: Colour [7] | Colour [13, 21]
164 to 166 °C: melting point
+/−: Colour [9] | Colour [10, 21]

O=C([O-])C1OC(Oc2cc3ccccc3cc2O)C(O)C(O)C1O.[Na+] [Compound 12b, DHN-β-D-glucuronide Sodium Salt]
53 to 55 °C: melting point
++: Colour [1, 21]
−: Colour [2, 21] | Colour [3, 21] | Colour [4, 21] | Colour [5, 21] | Colour [6, 21] | Colour [7] | Colour [8, 21] | Colour [9] | Colour [10, 21] | Colour [11, 21] | Colour [12, 21] | Colour [13, 21] | Colour [14, 21] | Colour [15, 21] | Colour [16] | Colour [17, 21] | Colour [18] | Colour [19] | Colour [20]
strong colour: hydrolysis of substrate (judged by colour) ([1]; agar plates containing FAC)
